Where “and” joins values, the source holds several entries; their conditions need not be identical. Equal values may be shown once. Entries after “also recorded” stand apart in the source; their conditions may differ. Where a name gives a salt, the structure may show the parent alone.
How the values were obtained:
peritoneal neutrophils = test: In vitro neutrophil chemotaxis toward zymosan-activated rat serum (Example 24); assay type: cell-based, mouse; settings: for IC50 / inhibition at 1 µg/mL / inhibition at 10 µg/mL / inhibition at 0.1 µg/mL: Mus musculus, Neutrophil; for IC50: 6 h, 20 percent zymosan-activated rat serum, six hours, 37° C., read-out: ID50 (molar concentration that inhibited chemotaxis by 50 percent); for inhibition at 1 µg/mL / inhibition at 10 µg/mL / inhibition at 0.1 µg/mL: read-out: Percent Inhibition of chemotaxis; for inhibition at 10 µg/mL: dose 10.0 μg/ml; for inhibition at 0.1 µg/mL: dose 0.1 μg/ml
Method: In vitro neutrophil chemotaxis studies were carried out by standard methods, as follows:
Mice were injected with complete Freund's adjuvant (CFA) and peritoneal cells, principally neutrophjls (>90 percent), were reproved from the mice 24 hours thereafter. Blind-well chemotactic chambers (Nucleopore Corp., Pleasanton, Calif.) were utilized.
Medium (RPMI 1640 plus 10 percent fetal calf serum) or medium plus 20 percent zymosan-activated rat serum (ZAS) was added to the lower compartment of each chamber. A nucleopore filter (8 μm pore size) was placed between compartments and 1×10^5 peritoneal neutrophils (above) suspended in medium were placed in the upper compartment. Chambers were incubated for six hours, after which time the filters were removed and stained with Giemsa stain. The number of cells on the lower surface of the filter was counted under a microscope. Treatment groups were assayed in duplicate.
The studies were carried out more specifically as follows:
Zymosan (Sigma Chemical Co., St. Louis, Mo.) was mixed with rat serum for one hour at 37° C. at 1 milligram (mg)/ml. The resulting chemoattractant composition was filtered, aliquotted and stored frozen at -70° C. prior to use.
The above chemoattractant composition was used as a 20 percent v/v solution in medium.
The chemotaxis chambers were arranged as follows:
The chambers were incubated at 37° C. for six hours, after which the chambers were dismantled, and the filters removed and treated as follows:
a) The filters were immersed in Giemsa stain diluted 1:50 for 30-45 minutes.
b) The stained filters were rinsed gently in distilled water for 3-5 minutes.
c) The stained, rinsed filters were air dried without blotting.
Several compounds described herein and control compounds ("drug", above) were examined at various concentrations, in duplicate. The molar concentration of a drug that inhibited the observed chemotaxis by 50 percent, defined as the ID50 value, was determined as shown below.

rat paw = test: Post-ischemic reperfusion paw swelling (Example 22); assay type: in vivo, Sprague Dawley male rats; settings: study C, 0.2 mg/kg i.p.
From the text: This important disease model is used to evaluate aspects of tissue injury that occur in heart attack, or myocardial infarction, and stroke. Under these conditions, a significant period of injury can occur after blood flow has been restored, during the period of reperfusion.
To produce ischemia, blood flow to the left hind foot was largely interrupted by application of a tourniquet made up of two size 18 rubber bands wound eight times around the leg just behind the heel. […] Both application and removal of tourniquet were carried out under ether anesthesia. Injury was equated with organ swelling, which was assayed by measurement of the dorsoventral foot diameter with a Schnelltaster caliper, just before application of the tourniquet and at various times following tourniquet removal, during the reperfusion period.
Rats employed were Sprague Dawley males, weighing 240-280 grams. Drug comparisons were made here employing measurements 30 minutes into the reperfusion period. The widely studied drug allopurinol, a xanthine oxidase inhibitor and a free radical scavenging agent, used in the treatment of gout, and widely used to suppress experimental post-ischemic reperfusion injury was used as an experimental treatment standard. In studies below, allopurinol and all new drugs were given intraperitoneally 45-60 minutes prior to application of the tourniquet. Data are reported as the mean swelling (Mn)±standard error (SE). […] Group n is 5 or 6.
In another study, drug comparisons were made at various times after the reperfusion period. In this study, control and drug treatment groups were as above.

neutrophils = test: Microscopic examination of neutrophils for cytotoxicity (Example 24); assay type: cell-based, mouse
foot pad = test: Inflammation provoked by carrageenan injection (Example 25); assay type: in vivo, mice; settings: subcutaneous; ibuprofen 50 mg/kg, Compound III 30 mg/kg; not significant
[1] = test system: inflammation in experimental allergic encephalomyelitis; settings: Willenborg et al. (1989); cited from earlier work
focal submucosal lesions [2] = test: Ethanol-induced gastric focal lesions (Example 33); assay type: in vivo, rat; settings: one hour post-ethanol, 50 mg/kg
[3] = Solubility / dissolution in acid, water and 20 percent methanol; assay type: physicochemical; settings: pH 1.2; Compound III:Al 2.5 mg/ml
focal submucosal lesions [4] = test: Ethanol-induced gastric focal lesions (Example 33); assay type: in vivo, rat
Method: At three hours after ethanol administration, this drug continued to suppress ethanol-induced focal lesions (-57 percent).
A suspension of 25 mg/kg sucralfate+25 mg/kg Compound III:Al in combination was given as a pretreatment administration to another group in the same study. The combination produced an unanticipated augmentation of therapeutic effect against ethanol-induced focal submucosal lesions (-90 percent) at three hours post-ethanol administration. The same interactive phenomenon was also observed when Compound III was used, rather than Compound III:Al.

gastric mucosal ulcers = test: Healing of established gastric ulcers induced by acetic acid (Example 34); assay type: in vivo, rat
From the text: To evaluate drug effects on peptic ulcer healing, gastric mucosal ulcers were produced in rats, after a two day fast, by a modification of the method of Konturek et al., Am. J. Med., Vol. 86, 6A, 32 (1989). Briefly, to produce a mucosal ulcer, Konturek et al. applied 100 percent acetic acid for twenty seconds to the stomach serosa through a small cylindrical mold, 4.2 mm in diameter. The aim here was to make ulceration more severe than was achieved by the Konturek group so that spontaneous healing would not be as pronounced as they found in the controls, over an experimental period of seven days.
All drugs studied were suspended in 0.25 percent (by weight) aqueous methylcellulose solution as the vehicle or diluent, which also served as the placebo given to the controls. Treatments were given once daily by oral gavage, in one milliliter of vehicle. The treatment groups were: Control; Sucralfate at 200 mg/kg; and Compound III:Al at 200 mg/kg.
At the end of the treatment period, stomachs were removed, ulcer diameters were measured, and determination was made of the presence or absence of perforation.
A second study was carried out in which ulcer evolution was permitted to take place over five additional days, in the absence and presence of treatment with Sucralfate.
A third study was begun one day following the start of study 2, in which ulcer evolution was allowed to take place over five additional days, in the absence and presence of treatment with Compound III:Al.
In another study, after ulcer induction as above, a different dosage protocol was employed at 24 hours to evaluate the interaction of Compound III and orally administered sucralfate on ulcer healing. […] Here, daily drug doses of the following were used: (a) sucralfate at 200 mg/kg, alone and (b) in combination with 80 mg/kg Compound III given by mouth at -45 minutes, and, in a third group, (c) in combination with 10 mg/kg Compound III given IV also at -45 minutes. In this interaction study, drug treatment was continued for three and not five days, as was the case for the above studies, followed by passage of two additional non-treatment days before sacrifice of animals for evaluation of stomach ulcer area and perforation.
Data from all ulcer-healing studies employing a drug dosage of 200 mg/kg and the same ulcerogenesis protocol were pooled as to the frequency of gastric perforation observed on day five, not shown separately, with the day six perforation data shown above.

[5] = Dissolution and buffering of suspensions, HCl titration (Example 16)
From the text: Note that the term "apparent pK" in this context is meant to encompass the maximization of buffering that come both from solid-state dissolution and its titration as solute.

[6] = three hours post-ethanol, 50 mg/kg, combination 25 + 25 mg/kg

Method for mouse blood coagulation: To assess the effect on coagulation, if any, of a compound of the invention, a comparative evaluation was made using mouse blood.
One ml of freshly drawn mouse blood was added to each tube, and the tube contents were mixed. The clotting time was then noted for each tube, and the results are as shown below:

Molecule: CC1(C)O[C@H]2O[C@H]([C@H](O)COP(=O)(O)O)[C@H](OP(=O)(O)O)[C@H]2O1 [Compound VI, 1,2-O-(2-Propylidene)-3,6-di-O-phospho-α-D-glucofuranose, tetrapotassium salt]
- IC50 (peritoneal neutrophils): 1 µM
- inhibition at 1 µg/mL (peritoneal neutrophils; dose 1.0 μg/ml): 44%
- inhibition at 10 µg/mL (peritoneal neutrophils): 85%
- Percent Inhibition of chemotaxis (peritoneal neutrophils; dose 1.0 μg/ml): 47.0%
- Post-ischemic reperfusion 30 minute paw swelling, Mn ± SE (rat paw; control 18.4 ± 0.54, P < 0.02): 9.1 ± 0.27 0.1 mm
- Swelling change as a result of treatment (rat paw; 30 minutes): -50%
- expressions of cytotoxicity in neutrophils by microscopic examination (neutrophils): diffuse toxic granularity in the cells

Molecule: CC(C)Cc1ccc(C(C)C(=O)O)cc1 (stereo not drawn) [Ibuprofen, reference compound]
- IC50 (peritoneal neutrophils): > 50 µM
- inhibition at 0.1 µg/mL (peritoneal neutrophils): 17.5%
- inhibition at 1 µg/mL (peritoneal neutrophils; dose 1.0 μg/ml): 9.3%
- inhibition at 10 µg/mL (peritoneal neutrophils): 35.5%
- reduction in swelling (foot pad): 24%

Molecule: O=P(O)(O)OC[C@H]1O[C@H](OP(=O)(O)O)[C@@H](O)[C@@H](O)[C@@H]1O [Mannose-1,6-diphosphate]
- effect on inflammation in EAE, in words [1]: less effective than mannose-6-phosphate

Molecule: O=P(O)(O)OC[C@H]1OC(O)[C@@H](O)[C@@H](O)[C@@H]1O (stereo partly drawn) [Mannose-6-phosphate]
- effect on inflammation in EAE, in words [1]: useful in treating inflammation

Molecule: CCCN(CCC)S(=O)(=O)c1ccc(C(=O)O)cc1 [Probenecid, reference compound]
- IC50 (peritoneal neutrophils): 3 µM
- inhibition at 0.1 µg/mL (peritoneal neutrophils): 5.5%
- inhibition at 1 µg/mL (peritoneal neutrophils; dose 1.0 μg/ml): 59.5%
- inhibition at 10 µg/mL (peritoneal neutrophils): 89.5%
- expressions of cytotoxicity in neutrophils by microscopic examination (neutrophils): stringy, elongated deformation in the neutrophils

Molecule: O=P(O)(O)OC[C@H]1OC(O)(COP(=O)(O)O)[C@@H](O)[C@@H]1O (stereo partly drawn) [fructose-1,6-diphosphate]
- effect on inflammation in EAE, in words [1]: less effective than mannose-6-phosphate

Molecule: Aluminum Complex of 1,2-O-(1-Isopropylidene)-3,5,6-Tri-O-Sulfo-D-Glucofuranose [Compound III:Al]
- change in focal lesions versus control (focal submucosal lesions [2]): -100%
- Focal Lesions per Stomach (focal submucosal lesions [2]; n = 6, control 4.17 ± 1.58, p<0.05): 0.00 per Stomach
- dissolution of suspension in acid [3]: still not all dissolved
- effect on ethanol-produced gastric pathology, in words (focal submucosal lesions [4]; pretreatment 50 mg/kg one hour before ethanol): inhibited all focal lesions provoked by ethanol after one hour without suppressing large-vessel vasodilation
- change in focal lesions versus control (focal submucosal lesions [4]; [6]): -57%
- change in focal lesions versus control, study employing Compound III (focal submucosal lesions [4]; [6]): -33%
- Focal Lesions per Stomach, study employing Compound III (focal submucosal lesions [4]; three hours post-ethanol, 50 mg/kg, combination 25 + 25 mg/kg, control 2.25 ± 0.98): 1.50 + 0.76 per Stomach
- Focal Lesions per Stomach (focal submucosal lesions [4]; three hours post-ethanol, 50 mg/kg, combination 25 + 25 mg/kg, n = 17, control 4.94 ± 1.41): 2.12 ± 0.87 per Stomach
- DRUG EFFECT on mean ulcer score (gastric mucosal ulcers; Day 6, 200 mg/kg oral): -80%
- Established ulcer score, individual animal (area in cm^2, + 2.0 for perforation) (gastric mucosal ulcers; Day 6, 200 mg/kg oral once daily, * = perforation, 200 mg/kg): 1.2 and 5.75 and 0.72 and 0.8 and 0.5 and 0.3 and 0.56 and 1.4 and 0.90 and 1.44
- MEAN SCORE, established ulcers (gastric mucosal ulcers; Day 6, 200 mg/kg oral, controls 3.03 ± 0.73 (sucralfate study, not significant), 4.12 ± 0.67 (Compound III:Al study, P < 0.001)): 0.82 ± 0.13
- DRUG EFFECT on mean ulcer area (gastric mucosal ulcers; day six, 200 mg/kg oral): -65%
- Established ulcer area, MEAN (gastric mucosal ulcers; day six, 200 mg/kg oral, controls 2.14 ± 0.43 (sucralfate, P < 0.1), 2.32 ± 0.61 (Compound III:Al, P < 0.05)): 0.82 ± 0.13 CM^2
- Perforation As Percent (gastric mucosal ulcers; pooled, 200 mg/kg, control 50, Compound III:Al P < 0.001 vs control and vs sucralfate): 0%
- Perforation Frequency (gastric mucosal ulcers; pooled, 200 mg/kg, days five and six, control 26/52): 0/49
- HCl needed to lower pH of suspension to below pH 2.00 ([5]; 50 mg in 20 ml distilled water, initial pH 4.44 (aluminum trihydroxide), 4.91 (sucralfate), 4.23 (Compound III:Al), water alone 0.30): 1.2 meq
- buffering action, in words ([5]; HCl titration): better dissolution-and-buffering action between pH 4.5 and 2.0 than either aluminum trihydroxide or sucralfate; also recorded: no buffering power whatsoever at this pH value
- Relative Buffering Power between pH 4.5 and 2.0 ([5]; sucralfate = 1): 11

Molecule: Heparin
- effect on blood coagulation, in words (mouse blood coagulation): uncoagulatable after 60 minutes

Source: patent US5358936A, “Anionic furanose derivatives, methods of making and using the same” (Gordon; Paul, priority 1991, dated 1994)
